We go through 29 molecules from patent publication US9945845B2, “Methods of screening using amphibians” (priority 2009, dated 2018).

Where two headings read alike, the source gives them in different places.

The data set concerns Xenopus embryos. Conditions: for Type of edema Ventral: ‡ = edemas also detected in the gut; for Type of edema Periocular: * = causing bulging eyes, # = bilateral, causing narrow-set eyes. As to the method:
10-μl aliquots of the chemicals were transferred from the mother plates with a liquid handling robot (Aquarius, Tecan) into 96-well tissue culture plates to generate diluted stock plates (2 mM in DMSO; 50 μl final volume). […] Once embryos reached stage 31 (37 hpf), 10-μl aliquots of the diluted chemicals were added to the wells. […] Negative control wells contained embryos in screening medium and 0.1×MMR only. Embryos were treated with the chemicals in a humidified incubator at 23° C. over a timeframe of 4 days. Embryos were manually scored for the presence of edema or other morphological phenotypes using a teaching dissecting microscope (SV6; Carl Zeiss). Two investigators performed separately the scoring daily at stages 39 (56 hpf), 41 (76 hpf), 45 (98 hpf), and 47 (120 hpf). Dead embryos were removed and 100 μl of water was added daily to each well to compensate for fluid evaporation. […] For imaging at the end of the experiments. Xenopus tadpoles were anesthetized with 0.05% tricaine (Sigma #A5040) in 0.1×MMR. Images were captured using a stereomicroscope (SteREO Lumar V12; Carl Zeiss) equipped with a digital camera (AxioCam Color; Carl Zeiss).
Xenopus late tailbud embryos at stage 31 (37 hpf) were selected for compound treatment. […] Embryos were arrayed into 48-well dishes (five per well) and treated with test compounds at a concentration of 20 μM in the presence of 1% DMSO. […] All 48-well dishes also contained replicates of negative controls (1% DMSO). Embryos were monitored daily over a period of four days for edema formation. In addition, drug-induced lethality and other externally visible phenotypes were scored. On average, 320 compounds were screened per week.

The mark [1] stands for this setting: compounds causing lethality, 20 μM, 1% DMSO, treatment from stage 31, Nieuwkoop & Faber stage.
Setting [2] is: compounds causing cytotoxicity, 20 μM, 1% DMSO, treatment from stage 31, Nieuwkoop & Faber stage.
Where [3] appears, read: compounds causing edema, 20 μM, 1% DMSO, treatment from stage 31, scored to stage 47.
The mark [4] stands for this setting: embryonic stage, — = no stage of lethality given.
Setting [5] is: onset of edema, 20 μM, 1% DMSO, treatment from stage 31, Nieuwkoop & Faber stage.

With `c1ccc2c(c1)[I+]c1ccccc1-2` [Diphenyleneiodonium chloride, [1,1′-Biphenyl]-2,2′-diyiodonium chloride], the “Lethality (NF)” value (Xenopus laevis, in vivo) is reported as 42 NF.

`CCCCCCCCCCCCCCCCCCOCC(COP(=O)([O-])OCC[N+](C)(C)C)OC` (stereo not drawn) [ET-18-OCH3, 3,5,9-Trioxa-4-phosphaheptacosan-1-aminium]: the “Lethality (NF)” value under setting [1] is 37/38.

On to `O=c1c2ccccc2[se]n1-c1ccccc1` [Ebselen, 2-Phenyl-1,2-benzisoselenazol-3(2H)-one], for which the “Lethality (NF)” value under setting [2] came to 32 NF.

Turning to `COC(=O)c1c(C)[nH]c(C)c1C(=O)c1ccccc1Cc1ccccc1` [FPL 64176, 2,5-Dimethyl-4-[2-(phenylmethyl)benzoyl]-1H-pyrrole-3-carboxylic acid methyl ester], the “Lethality (NF)” value under setting [1] worked out at 40 NF.

Consider `CC(C)=CCCC(C)=CCCC(C)=CCSc1ccccc1C(=O)O` [Farnesylthiosalicylic acid], for which the “Lethality (NF)” value under setting [2] is reported as 32 NF.

Regarding `O=C1NCN(c2ccccc2)C12CCN(CCCC(c1ccc(F)cc1)c1ccc(F)cc1)CC2` [Fluspirilene], under setting [2], the “Lethality (NF)” value stood at 32 NF.

Turning to `C=C[C@@]1(C)CC(=O)[C@]2(O)[C@@]3(C)[C@@H](O)CCC(C)(C)[C@@H]3[C@H](O)[C@H](OC(C)=O)[C@@]2(C)O1` [Forskolin], the “Lethality (NF)” value under setting [3] was 41/42. Besides, where the note is “embryonic stage”, the “Type of edema Pericordial” value was 39 embryonic stages according to Nieuwkoop and Faber (NF); the “Type of edema Proctodeal” value was 39 embryonic stages according to Nieuwkoop and Faber (NF); the “Type of edema Ventral” value is 39 embryonic stages according to Nieuwkoop and Faber (NF). The Lethality under setting [4] is on record as 41/42. Also, under setting [5], the “Onset (NF)” value is listed as 39/40.

Consider `Cl.Cl.Fc1ccc(C(OCCN2CCN(CCCc3ccccc3)CC2)c2ccc(F)cc2)cc1` [GBR-12909 dihydrochloride, 1-[2-[bis(4-Fluorophenyl)methoxy]ethyl]-4-[3-phenylpropyl]piperazine dihydrochloride], for which, for the setting “embryonic stage”, the “Type of edema Pronephric” value was 45 embryonic stages according to Nieuwkoop and Faber (NF); the “Type of edema Periocular” value was 45 embryonic stages according to Nieuwkoop and Faber (NF); the “Type of edema Ventral” value is 45 embryonic stages according to Nieuwkoop and Faber (NF).

On to `CC(C)(Sc1ccc(CCN(CCCCC2CCCCC2)C(=O)NC2CCCCC2)cc1)C(=O)O` [GW7647], for which, under setting [2], the “Lethality (NF)” value came to 32 NF.

`O=C1Cc2c([nH]c3ccc(Br)cc23)-c2ccccc2N1` [Kenpaullone]: for the setting “embryonic stage”, the “Type of edema Periocular” value was 45 embryonic stages according to Nieuwkoop and Faber (NF); the “Type of edema Ventral” value is 45 embryonic stages according to Nieuwkoop and Faber (NF).

As to `Cc1c(CC(C)(C)C(=O)O)n(Cc2ccc(Cl)cc2)c2ccc(F)cc12` [L-655,240, 3-[1-(4-Chlorobenzyl)-5-fluoro-3-methyl-indol-2-yl]-2,2-dirriethyl propanoic acid], under setting [2], the “Lethality (NF)” value came to 32 NF.

Turning to `COc1cc2nc(N3CCN(C(=O)OCc4ccccc4)[C@H](C(=O)NC(C)(C)C)C3)nc(N)c2cc1OC` [L-765,314, (2S)-4-(4-Amino-6,7-dimethoxy-2-quinazolinyl)-2-[[(1,1-Dimethylethyl)amino]carbonyl]-1-piperazinecarboxylic acid, phenylmethyl ester], under “embryonic stage”, the “Type of edema Periocular” value is recorded as 41/42 #; the “Type of edema Ventral” value was 45 embryonic stages according to Nieuwkoop and Faber (NF). In addition, the “Onset (NF)” value under setting [5] is reported as 41/42.

In the case of `CCCCCCCCCCCCCCCCOC[C@H](COCC(F)(F)F)OP(=O)(O)OC.[Li]` [MJ33, 1-Hexadecyl-3-(trifluoroethyl)-sn-glycero-2-phosphomethanol lithium], under setting [2], the “Lethality (NF)” value was 32 NF.

`Cc1ccc(Cl)c(Nc2ccccc2C(=O)O)c1Cl.[Na]` [Meclofenamic acid sodium, 2-([2,6-Dichloro-3-methylphenyl]amino)benzoic acid sodium]: the “Lethality (NF)” value under setting [3] is given as 41/42. Also, the “Type of edema Pericordial” value (embryonic stage) is 35/36. Moreover, under setting [4], the Lethality is on record as 41/42. For the same molecule, the “Onset (NF)” value under setting [5] was 35/36.

As to `Cl.O=C(CCCN1CCC2(CC1)C(=O)N(CCc1ccc(N=C=S)cc1)CN2c1ccccc1)c1ccc(F)cc1` [N-(p-Isothiocyanatophenethyl)spiperone hydrochloride], where the note is “embryonic stage”, the “Type of edema Periocular” value was 45 embryonic stages according to Nieuwkoop and Faber (NF); the “Type of edema Ventral” value was 45 embryonic stages according to Nieuwkoop and Faber (NF). For the same molecule, the “Onset (NF)” value under setting [5] was 45 NF.

With `CCCCCCCC/C=C\CCCCCCCC(=O)NCCc1ccc(O)c(O)c1` [N-Oleoyldopamine], the “Lethality (NF)” value under setting [1] was found to be 41 NF.

Consider `COC(=O)C1=C(C)NC(C)=C(C(=O)OC)C1c1ccccc1[N+](=O)[O-]` [Nifedipine], for which, under “embryonic stage”, the “Type of edema Pericordial” value is reported as 41/42; the “Type of edema Periocular” value is 41/42; the “Type of edema Ventral” value was 45 embryonic stages according to Nieuwkoop and Faber (NF). Besides, the “Onset (NF)” value under setting [5] is 41/42.

With `COCCOC(=O)C1=C(C)NC(C)=C(C(=O)OC(C)C)C1c1cccc([N+](=O)[O-])c1` (stereo not drawn) [Nimodipine, 1,4-Dihydro-2,6-dimethyl-4-(3-nitrophenyl)-3,5-pyridinecarboxylic acid 2-methoxyethyl 1-methylethyl ester], where the note is “Xenopus laevis, in vivo”, the Lethality is 41/42 and the “Lethality (NF)” value is given as 41/42. Further, the “Type of edema Pericordial” value (embryonic stage) is 41/42. Further, the “Onset (NF)” value under setting [5] is listed as 41/42.

`CCOC(=O)C1=C(C)NC(C)=C(C(=O)OC)C1c1cccc([N+](=O)[O-])c1` (stereo not drawn) [Nitrendipine, 1,4-Dihydro-2,6-dimethyl-4-(3-nitrophenyl)-3,5-pyridinecarboxylic acid ethyl methyl ester]: the “Lethality (NF)” value under setting [1] came to 45 NF.

As for `CCCCCCCCCCCCCC(=O)O[C@@H]1[C@@H](C)[C@@]2(O)[C@@H](C=C(CO)C[C@]3(O)C(=O)C(C)=C[C@@H]23)[C@@H]2C(C)(C)[C@]12OC(C)=O` [Phorbol 12-myristate 13-acetate], under setting [2], the “Lethality (NF)” value is listed as 32 NF.

Turning to `O=c1[nH]c2ccccc2n1C1CCN(CCCC(c2ccc(F)cc2)c2ccc(F)cc2)CC1` [Pimozide], the “Lethality (NF)” value under setting [3] stood at 45 NF. Also, under “embryonic stage”, the “Type of edema Pericordial” value is recorded as 41/42, the “Type of edema Pronephric” value is 41/42 and the “Type of edema Ventral” value is 41/42. The Lethality under setting [4] is 45 embryonic stages according to Nieuwkoop and Faber (NF). Moreover, the “Onset (NF)” value under setting [5] is 41/42.

For the molecule `Br.C=CCN1CCc2cccc3c2[C@H]1Cc1ccc(O)c(O)c1-3` [R(-)-N-Allylnorapomorphine hydrobromide], the “Lethality (NF)” value (compounds causing pigmentation defects, 20 μM, scored to stage 47) was 40 NF. In addition, under “onset of pigmentation defects, 20 μM, 1% DMSO”, the “Onset (NF)” value is 33/34.

Consider `Nc1nc2ccc(OC(F)(F)F)cc2s1` [Riluzole, 2-Amino-6-(trifluoromethoxy)-benzothiazole], for which, where the note is “embryonic stage”, the “Type of edema Pronephric” value was 45 embryonic stages according to Nieuwkoop and Faber (NF); the “Type of edema Periocular” value was 45 embryonic stages according to Nieuwkoop and Faber (NF); the “Type of edema Ventral” value was 45 embryonic stages according to Nieuwkoop and Faber (NF).

For the molecule `Cc1nc2sccn2c(=O)c1CCN1CCC(=C(c2ccc(F)cc2)c2ccc(F)cc2)CC1` [Ritanserin], where the note is “embryonic stage”, the “Type of edema Pronephric” value is 45 embryonic stages according to Nieuwkoop and Faber (NF); the “Type of edema Periocular” value is 41/42; the “Type of edema Ventral” value is recorded as 41/42. For the same molecule, under setting [5], the “Onset (NF)” value is given as 41/42.

Take `O=C(c1cc(O)c(O)c([N+](=O)[O-])c1)c1ccccc1F` [Ro 41-0960, 2′-Fluoro-3,4-dihydroxy-5-nitrobenzophenone]: the “Lethality (NF)” value under setting [2] is recorded as 33/34.

As for `C=C(C)[C@H]1Cc2c(ccc3c2O[C@@H]2COc4cc(OC)c(OC)cc4[C@@H]2C3=O)O1` [Rotenone], the “Lethality (NF)” value under setting [2] was 32 NF.

Turning to `CC(=O)c1c(O)c(C)c(O)c(Cc2c(O)c3c(c(C(=O)/C=C/c4ccccc4)c2O)OC(C)(C)C=C3)c1O` [Rottlerin], the “Lethality (NF)” value under setting [2] is listed as 32 NF.

For `CC#CCOC(=O)c1c(C)nc2sc3c(c2c1N)CCC(O)C3` (stereo not drawn) [SB 205384, 4-Amino-7-hydroxy-2-methyl-5,6,7,8-tetrahydrobenzo[b]thieno[2,3-b]pyridine-3-carboxylic acid but-2-ynyl ester], the “Lethality (NF)” value (compounds causing other phenotypic defects, 20 μM, scored to stage 47) came out at 46 NF. Also, the “Onset (NF)” value (onset of other phenotypic defects, 20 μM, 1% DMSO) is recorded as 40 NF.

With `COc1ccc(CCCOC(Cn2ccnc2)c2ccc(OC)cc2)cc1.Cl` (stereo not drawn) [SKF 96365, 1-(beta-[3-(4-Methoxyphenyl)propoxy]-4-methoxyphenethyl)-1H-imidazole hydrochloride], the “Lethality (NF)” value under setting [3] was 41/42. Besides, for the setting “embryonic stage”, the “Type of edema Pericordial” value was 39 embryonic stages according to Nieuwkoop and Faber (NF); the “Type of edema Proctodeal” value is 40 embryonic stages according to Nieuwkoop and Faber (NF); the “Type of edema Ventral” value is 40 embryonic stages according to Nieuwkoop and Faber (NF). In addition, the Lethality under setting [4] was 41/42.
